Results from patent publication US20110077270A1, “Compositions and Methods for Treating Ocular Inflammation with Lower Risk of Increased Intraocular Pressure” (priority 2009, published 2011).
“And” between values parts separate entries of the source, which are not always exact repeats. Identical values can stand only once.

Key:
[1] = system: PGE2 in the aqueous humor; experiment: Prostaglandin E2 (PGE2) measurement in aqueous humor, rabbit paracentesis model; assay type: in vivo; details: second paracentesis; for PGE2 level in aqueous humor, Mean: group mean; for PGE2 level in aqueous humor: individual eye
Description: (§1) Each rabbit was placed in a restraint device and tagged with the alphanumeric code. The formulations were instilled (50 μl) into the conjunctival sac of both eyes 180, 120, 90 and 30 min before the first paracentesis; then 15, 30, 90 min after the first paracentesis. To perform the first paracentesis the animals were anaesthetized by intravenous injection of 5 mg/kg Zoletil® (Virbac; 2.5 mg/kg tiletamine HCl and 2.5 mg/kg zolazepam HCl) and one drop of local anesthetic (Novesina®, Novartis) was administered to the eye. Anterior chamber paracentesis was performed with a 26 G needle attached to a tuberculin syringe; the needle was introduced into the anterior chamber through the cornea, taking care not to damage the tissues. Two hours after the first paracentesis, the animals were sacrificed with 0.4 ml Tanax® (Intervet International B.V.) and the second paracentesis was performed. About 100 μl of aqueous humor were removed at the second paracentesis. Aqueous humor was immediately split in four aliquots and stored at −80° C. until analysis. Then both eyes were enucleated and the iris-ciliary body was carefully excised, placed in polypropylene tubes, and stored at −80° C. until analysis.
For the quantitative determination of PGE2 in the aqueous humor we used the PGE2 Immunoassay kit (R&D Systems; Cat. No. KGE004; Lot. No. 240010). Eleven microliters or 16 μl of aqueous humor were diluted to 110 μl or 160 μl with the calibrator diluent solution provided with the kit. One hundred microliters of samples and of standards were load into a 96-well plate and recorded in a plate layout. Samples were treated following the assay procedure described in the kit. A microplate reader (GDV, Italy; model DV 990 B/V6) set at 450 nm (wavelength correction at 540 nm) was used for making the calibration and analyzing the samples.

[2] = system: rabbit paracentesis model; experiment: Pupillary diameter measurement, rabbit paracentesis model; assay type: in vivo; details: individual eye; for Pupillary diameter T1: −180 min: 50 μl drops, basal; for Pupillary diameter T2: −5 min: 5 min before first paracentesis; for Pupillary diameter T3: +115 min: 5 min before second paracentesis; for Pupillary diameter Δ(T3 − T1): +115 min minus −180 min
Description: as §1
The pupillary diameter of both eyes was measured with a Castroviejo caliper 180 min and 5 min before the first paracentesis and 5 min before the second paracentesis.

[3] = system: leukocytes (PMN) in aqueous humor; experiment: Leukocytes (PMN) measurement in aqueous humor, rabbit paracentesis model; assay type: in vivo; details: second paracentesis; for PMN numbers in aqueous humor: individual eye; for PMN numbers in aqueous humor, Mean: group mean
Description: as §1
For the determination of the number of leukocytes we used a haemocytometer (Improved Neubauer Chamber; Bright-line, Hausser Scientific) and a Polyvar 2 microscope (Reichert-Jung).

[4] = system: MPO activity in iris-ciliary body; experiment: Myeloperoxidase (MPO) activity in iris-ciliary body, rabbit paracentesis model; assay type: in vivo; details: for MPO Unit/g: iris-ciliary body samples collected after the second paracentesis, individual eye samples; for MPO activity in iris-ciliary body, Mean: after second paracentesis, group mean
Description: as §1
The activity of MPO was measured as previously described by Williams et al.[5] The iris-ciliary bodies were carefully dried, weighed and immersed in 1 ml of hexa-decyl-trimethyl-ammonium bromide solution. Then, the samples were sonicated for 10 sec on ice by a ultrasound homogenizer (HD 2070, Bandelin electronic), freeze-thawed three times, sonicated for 10 sec and centrifuged at 14,000 g for 10 min to remove cellular debris. An aliquot of the supernatant ([…] was diluted to 3 ml with the o-dianisidine 2HCl/H2O2 solution. The change in absorbance at 460 nm was continuously monitored for 5 min by a spectrophotometer (UV/Vis Spectrometer Lambda EZ 201; Perkin Elmer). The slope of the line (Δ/min) was determined for each sample and used to calculate the number of units of MPO in the tissue as follows:
were ε=11.3 mM^−1. Values were expressed as units of MPO/g of tissue.

[5] = system: protein concentration in the aqueous humor; experiment: Protein measurement in aqueous humor, rabbit paracentesis model; assay type: in vivo; details: for Protein level in aqueous humor, Mean / Protein level in aqueous humor: second paracentesis; for Protein level in aqueous humor, Mean: group mean; for Protein level in aqueous humor: individual eye
Description: as §1
For protein concentration determination in the aqueous humor we used the Protein Quantification Kit (Fluka; Cat. No. 77371; Lot. No. 1303129). Five microliters of aqueous humor were diluted to 100 μl with water. Twenty microliters of samples and of standards were load into a 96-well plate and recorded in a plate layout. Samples were treated following the assay procedure described in the kit. A microplate reader (GDV, Italy; model DV 990 B/V6) set at 670 nm was used for making the calibration and analyzing the samples.

[6] = system: human corneal epithelial cells (HCECs); experiment: IL-1β-stimulated cytokine production in primary human corneal epithelial cells (30-cytokine Luminex kit); details: IL-1β-stimulated HCECs, 18 h
Description: Primary HCECs were seeded in 24-well plates. […] Each treatment was performed in triplicate. Media were collected and used for determination of cytokine content using a 30-cytokine Luminex kit.
Median fluorescence intensity (WI) was used to obtain the concentration of each cytokines in pg/ml based on the standard curve of each cytokine assayed by Luminex. The linear range of the standard curve for each cytokine was used for determination of cytokine concentration. Duplicate values for each sample were averaged. Data were expressed as mean±SD. Statistical analysis was performed using one-way ANOVA-Dunnett's test, and P<0.05 was considered statistically significant.

[7] = 0.1% topical formulation, listed as BOL
[8] = 0.5% topical formulation, listed as BOL
[9] = 1% topical formulation, listed as BOL

In the case of C[C@@H]1C[C@H]2[C@@H]3CCC4=CC(=O)C=C[C@]4(C)[C@@]3(F)[C@@H](O)C[C@]2(C)[C@@]1(O)C(=O)CO [Dex, dexamethasone, reference compound], the “PGE2 level in aqueous humor, Mean” value ([1]; 0.1% topical formulation) is reported as 2.263 ng/mL, the “PGE2 level in aqueous humor” value ([1]; 0.1% topical formulation) is reported as 2.51 ng/ml and 2.32 ng/ml (2×) and 2.10 ng/ml and 3.03 ng/ml and 1.30 ng/ml and the “Pupillary diameter T1: −180 min” value ([2]; 0.1% topical formulation) is reported as 6.0 mm and 7.0 mm (2×) and 5.5 mm (2×) and 6.5 mm (3×). For the same compound, the “Pupillary diameter T2: −5 min” value ([2]; 0.1% topical formulation) was 5.5 mm and 6.5 mm (3×) and 6.0 mm (2×) and 7.0 mm and 7.5 mm, the “Pupillary diameter T3: +115 min” value ([2]; 0.1% topical formulation) was 5.5 mm (3×) and 6.0 mm (2×) and 4.5 mm and 5.0 mm and 6.5 mm and the “Pupillary diameter Δ(T3 − T1)” value ([2]; 0.1% topical formulation) was −0.5 mm (3×) and −1.5 mm (2×) and 0.5 mm and 0.0 mm and −2.0 mm. For the same compound, the “PMN numbers in aqueous humor” value ([3]; 0.1% topical formulation) was 20 number/μl (3×) and 50 number/μl and 40 number/μl and 30 number/μl, the “MPO Unit/g” value ([4]; 0.1% Dex) was 0.71 Unit/g and 0.60 Unit/g and 1.32 Unit/g and 0.48 Unit/g (2×) and 0.39 Unit/g and 0.45 Unit/g and 0.51 Unit/g and the “MPO activity in iris-ciliary body, Mean” value ([4]; 0.1% topical formulation) was 0.618 MPO Unit/g. For the same compound, the “Protein level in aqueous humor, Mean” value ([5]; 0.1% topical formulation) was 33.457 mg/mL and the “Protein level in aqueous humor” value ([5]; 0.1% topical formulation) was 31.31 mg/mL and 31.81 mg/mL and 35.95 mg/mL and 37.15 mg/mL and 32.12 mg/mL and 32.40 mg/mL.

In the case of Cc1ccc2c(NCC(O)(CC(C)(C)c3cc(F)cc4c3OCC4)C(F)(F)F)cccc2n1 (stereo not drawn) [BOL-303242-X], the “Potency of inhibition of IL-1β-stimulated production of GM-CSF, IL-8, and RANTES relative to dexamethasone” value [6] is reported as “less potency compared to dexamethasone”, the “Inhibition of IL-1β-stimulated cytokine production on 6 cytokines (IL-6, IL-7, MCP-1, TGF-α, TNF-α and VEGF)” value ([6]; comparable potency of both) is reported as “significantly inhibited” and the “PGE2 level in aqueous humor, Mean” value ([1]; 0.1% topical formulation) is reported as 1.452 ng/mL. For the same compound, the “PGE2 level in aqueous humor” value [1, 7] was 1.62 ng/mL and 1.88 ng/mL and 2.15 ng/mL and 0.70 ng/mL and 1.34 ng/mL and 1.03 ng/mL, the “PGE2 level in aqueous humor, Mean” value ([1]; 0.5% topical formulation) was 1.384 ng/mL and the “PGE2 level in aqueous humor” value [1, 8] was 2.31 ng/mL and 2.59 ng/mL and 0.53 ng/mL and 0.75 ng/mL and 0.80 ng/mL and 1.62 ng/mL and 1.09 ng/mL. For the same compound, the “PGE2 level in aqueous humor, Mean” value ([1]; 1% topical formulation) was 2.168 ng/mL, the “PGE2 level in aqueous humor” value [1, 9] was 0.50 ng/mL and 1.87 ng/mL and 1.71 ng/mL and 4.04 ng/mL and 1.11 ng/mL and 3.78 ng/mL and the “Pupillary diameter T1: −180 min” value [2, 7] was 6.5 mm (4×) and 7.0 mm (3×) and 7.5 mm. For the same compound, the “Pupillary diameter T2: −5 min” value [2, 7] was 6.5 mm (3×) and 7.0 mm (4×) and 7.5 mm, the “Pupillary diameter T3: +115 min” value [2, 7] was 5.0 mm (2×) and 6.0 mm (3×) and 6.5 mm and 5.5 mm (2×) and the “Pupillary diameter Δ(T3 − T1)” value [2, 7] was −1.5 mm (4×) and −0.5 mm (2×) and −1.0 mm (2×). The “Pupillary diameter T1: −180 min” value [2, 8] was 8.0 mm (3×) and 7.0 mm (3×) and 7.5 mm (2×), the “Pupillary diameter T2: −5 min” value [2, 8] was 8.0 mm (3×) and 7.0 mm (4×) and 7.5 mm and the “Pupillary diameter T3: +115 min” value [2, 8] was 6.5 mm (4×) and 6.0 mm (2×) and 7.0 mm (2×). For the same compound, the “Pupillary diameter Δ(T3 − T1)” value [2, 8] was −1.5 mm (2×) and −0.5 mm (2×) and −1.0 mm (4×), the “Pupillary diameter T1: −180 min” value [2, 9] was 6.0 mm (3×) and 6.5 mm (5×) and the “Pupillary diameter T2: −5 min” value [2, 9] was 6.0 mm (2×) and 6.5 mm (4×) and 7.0 mm (2×). The “Pupillary diameter T3: +115 min” value [2, 9] was 5.5 mm (2×) and 5.0 mm (4×) and 6.0 mm (2×), the “Pupillary diameter Δ(T3 − T1)” value [2, 9] was −0.5 mm (3×) and −1.5 mm (2×) and −1.0 mm (3×) and the “PMN numbers in aqueous humor, Mean” value ([3]; 0.1% topical formulation) was 28.333 number/μl. The “PMN numbers in aqueous humor” value [3, 7] was 20 number/μl (4×) and 40 number/μl and 50 number/μl, the “PMN numbers in aqueous humor, Mean” value ([3]; 0.5% topical formulation) was 21.250 number/μl and the “PMN numbers in aqueous humor” value [3, 8] was 40 number/μl (2×) and 20 number/μl (3×) and 10 number/μl (3×). The “PMN numbers in aqueous humor, Mean” value ([3]; 1% topical formulation) was 28.750 number/μl, the “PMN numbers in aqueous humor” value [3, 9] was 30 number/μl (3×) and 20 number/μl (3×) and 40 number/μl (2×) and the “MPO Unit/g” value ([4]; 0.1% BOL, listed as BOL) was 1.04 Unit/g and 1.00 Unit/g and 1.14 Unit/g and 1.06 Unit/g and 1.22 Unit/g and 0.61 Unit/g and 1.05 Unit/g and 0.65 Unit/g. The “MPO activity in iris-ciliary body, Mean” value ([4]; 0.1% topical formulation) was 0.971 MPO Unit/g, the “Activity in rabbit paracentesis model (preliminary conclusion)” value ([4]; 0.1%, 0.5%, 1% topical formulations, overall conclusion across biomarkers) was “active in this model” and the “MPO Unit/g” value ([4]; 0.5% BOL, listed as BOL) was 0.85 Unit/g and 0.93 Unit/g and 0.79 Unit/g and 1.03 Unit/g and 0.75 Unit/g and 0.74 Unit/g and 0.54 Unit/g and 0.58 Unit/g. The “MPO activity in iris-ciliary body, Mean” value ([4]; 0.5% topical formulation) was 0.775 MPO Unit/g, the “MPO Unit/g” value ([4]; 1% BOL, listed as BOL) was 0.66 Unit/g and 0.68 Unit/g and 0.49 Unit/g and 0.40 Unit/g and 0.34 Unit/g and 1.02 Unit/g and 0.31 Unit/g and 0.43 Unit/g and the “MPO activity in iris-ciliary body, Mean” value ([4]; 1% topical formulation) was 0.542 MPO Unit/g. The “Protein level in aqueous humor, Mean” value ([5]; 0.1% topical formulation) was 33.667 mg/mL, the “Protein level in aqueous humor” value [5, 7] was 34.87 mg/mL and 34.41 mg/mL and 31.14 mg/mL and 22.82 mg/mL and 29.46 mg/mL and 31.69 mg/mL and 35.70 mg/mL and 49.25 mg/mL and the “Protein, p vs CTR” value ([5]; 0.5% topical formulation) was less than 0.05. The “Protein level in aqueous humor, Mean” value ([5]; 0.5% topical formulation) was 28.844 mg/mL, the “Protein level in aqueous humor” value [5, 8] was 33.98 mg/mL and 33.65 mg/mL and 19.99 mg/mL and 27.11 mg/mL and 19.72 mg/mL and 36.35 mg/mL and 27.71 mg/mL and 32.24 mg/mL and the “Protein level in aqueous humor, Mean” value ([5]; 1% topical formulation) was 21.435 mg/mL. The “Protein level in aqueous humor” value [5, 9] was 20.99 mg/mL and 21.48 mg/mL and 15.11 mg/mL and 20.28 mg/mL and 20.94 mg/mL and 21.89 mg/mL and 20.03 mg/mL and 30.76 mg/mL.
